These results are taken from patent US8329704B2, “Substituted pyrazinone derivatives for use in MCH-1 mediated diseases” (Janssen Pharmaceutica, N.V., priority 2005, dated 2012).

T1 sequence (Q99705 whole entry): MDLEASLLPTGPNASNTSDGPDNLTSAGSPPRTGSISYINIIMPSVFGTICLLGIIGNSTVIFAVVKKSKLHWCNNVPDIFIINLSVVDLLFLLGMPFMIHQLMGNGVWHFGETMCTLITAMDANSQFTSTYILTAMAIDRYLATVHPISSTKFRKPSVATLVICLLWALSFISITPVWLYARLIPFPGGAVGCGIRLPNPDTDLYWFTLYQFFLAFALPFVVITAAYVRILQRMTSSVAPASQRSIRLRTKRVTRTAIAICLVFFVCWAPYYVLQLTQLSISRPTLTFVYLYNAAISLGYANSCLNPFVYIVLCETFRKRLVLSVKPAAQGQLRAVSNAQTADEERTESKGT

The assay addresses T1, human MCH-1 receptor (Homo sapiens, UniProt Q99705).
T1 construct: expressed in transfected cells
Put plainly: Ca2+ mobilization experiment for the MCH-1 receptor (FLIPR), inhibition of MCH-induced Ca2+ mobilization. It is filed as cell-based. The note with it: CHO cells stably expressing human MCH-1 receptor, inhibition of MCH-induced Ca2+ response, read-out: MCH-1 pIC50 (converted). The procedure:
The interaction of the compounds of Formula (I) with MCH-1 receptors was assessed in in vitro transient calcium (Ca^2+) mobilization assays in the fluorimetric imaging plate reader (FLIPR) format (Sullivan et al. 1999, Methods Mol Biol 114:125-133). In general, the natural agonist (MCH) is incubated with cells expressing the MCH-1 receptor, which elicits a concentration-dependent transient mobilization of Ca^2+ from internal stores. The interaction of the test compounds with the receptor is assessed in competition experiments. Various concentrations of the test compound are added to the incubation mixture containing the receptor-expressing cells and a submaximal concentration of MCH. The test compound in proportion to its antagonist potency and its concentration inhibits MCH-induced Ca^2+ mobilization.
Chinese Hamster ovary cells (CHO) stably expressing the human MCH-1 receptor are grown in a 1:1 mixture of Dulbecco's Modified Eagles Medium (DMEM) and HAM's F12 medium including Glutamax™ (Invitrogen), supplemented with 10% heat-inactivated fetal bovine serum and 400 μg/ml geneticin.
Twenty-four hours before the experiment, MCH-1 receptor-expressing CHO cells are seeded in 20 μl (5,000 cells per well) into 384-well black wall, clear bottom microtiter plates (Costar). On the day of the experiment, 20 μl per well calcium assay kit containing 10 mM probenicide (Molecular Devices) is added. Cells are loaded for 90 min at 37° C. and 5% CO2 in a cell culture incubator. After loading, 20 μl of serial dilutions of the test compound are added and cells are further incubated for 20 min at room temperature in the dark. After 20 min, 20 μl of a submaximal MCH concentration is added and changes in intracellular calcium are recorded directly in a FLIPR III apparatus (Molecular devices).
Data from assays in the presence of compound were calculated as a percentage of total Ca^2+-responses measured in the absence of test compound. Inhibition curves, plotting percent of total Ca^2+-responses versus the log value of the concentration of the test compound, were automatically generated, and sigmoidal inhibition curves were fitted using non-linear regression. The pIC50 values of test compounds were derived from individual curves.
(Calcium assays in cells follow changes in intracellular calcium, usually with a dye or a luminescent sensor.)
On to `COc1cc(-n2ccnc(NCCc3ccccc3)c2=O)ccc1NCCN1CCCC1` [3-28], for which the IC50 was 126 nM. Then `COc1cc(-n2ccnc(NCCc3ccccc3)c2=O)ccc1NCCN1CCOCC1` [3-29], with 63.1 nM. Then `COc1cc(-n2ccnc(NCCc3ccccc3)c2=O)ccc1OC1CCN(C)C1` (stereo not shown) [3-32], with 79.4 nM; and `COc1cc(-n2ccnc(NCCc3ccccc3)c2=O)ccc1OC1CCN(C2CC2)C1` (stereo not shown) [3-33], with 50.1 nM; and `COc1cc(-n2ccnc(NCCc3ccccc3)c2=O)ccc1OC[C@H]1CCCN1` [3-34], with 25.1 nM. Then `COc1cc(-n2ccnc(NCCc3ccccc3)c2=O)ccc1OC[C@@H]1CCCN1C` [3-35], with 25.1 nM.

For `COc1cc(-n2ccnc(NCCc3ccccc3)c2=O)ccc1OCC1CCCN1C(=O)OC(C)(C)C` (stereo not shown) [3-36], the IC50 was 126 nM. The result for `COc1cc(-n2ccnc(NCCc3ccccc3)c2=O)ccc1OCCN(C)CCO` [3-37] reads 50.1 nM.

Take `COc1cc(-n2ccnc(NCCc3ccccc3)c2=O)ccc1OCCNC(C)=O` [3-38]: the IC50 is 63.1 nM. The result for `CCCC(=O)NCCOc1ccc(-n2ccnc(NCCc3ccccc3)c2=O)cc1OC` [3-39] reads 63.1 nM; that for `COc1cc(-n2ccnc(NCCc3ccccc3)c2=O)ccc1OCCNC(=O)CN(C)C` [3-40], 79.4 nM; that for `COc1cc(-n2ccnc(NCCc3ccccc3)c2=O)ccc1OCCNC1CC1` [3-41], 25.1 nM. The result for `COc1cc(-n2ccnc(NCCc3ccccc3)c2=O)ccc1OCCN(C)C1CC1` [3-42] reads 31.6 nM; that for `COCC(=O)NCCOc1ccc(-n2ccnc(NCCc3ccccc3)c2=O)cc1OC` [3-43], 200 nM; that for `COc1cc(-n2ccnc(NCCc3ccccc3)c2=O)ccc1OCCNC(=O)c1ccncc1` [3-44], 200 nM. Consider `COc1cc(-n2ccnc(NCCc3ccccc3)c2=O)ccc1OCCN1CCC(O)C1` (stereo not shown) [3-45], for which the IC50 was 31.6 nM. Then `COc1cc(-n2ccnc(NCCc3ccccc3)c2=O)ccc1OCCN1CC[C@H](F)C1` [3-46], with 50.1 nM. Then `COc1cc(-n2ccnc(NCCc3ccccc3)c2=O)ccc1OCCN1CC[C@@H](F)C1` [3-47], with 63.1 nM.

`COc1cc(-n2ccnc(NCCc3ccccc3)c2=O)ccc1OCCN1CCCC1C(N)=O` (stereo not shown) [3-48]: the IC50 was 79.4 nM. Then `COc1cc(-n2ccnc(NCCc3ccccc3)c2=O)ccc1OCCN1CCCC(CO)C1` (stereo not shown) [3-49], with 31.6 nM; and `COc1cc(-n2ccnc(NCCc3ccccc3)c2=O)ccc1OCCN1CCC(F)CC1` [3-50], with 20 nM; and `COc1cc(-n2ccnc(NCCc3ccccc3)c2=O)ccc1OCCN1CCC(C#N)CC1` [3-51], with 39.8 nM. Then `COc1cc(-n2ccnc(NCCc3ccccc3)c2=O)ccc1OCCN1CCCC(C(N)=O)C1` (stereo not shown) [3-52], with 39.8 nM.

For the compound `COc1cc(-n2ccnc(NCCc3ccccc3)c2=O)ccc1OCCN1CCC(C(N)=O)CC1` [3-53], the IC50 is 50.1 nM. The result for `COc1cc(-n2ccnc(NCCc3ccccc3)c2=O)ccc1OCCN1CCC(C(=O)NC2CC2)CC1` [3-54] reads 20 nM.

For the compound `COc1cc(-n2ccnc(NCCc3ccccc3)c2=O)ccc1OCCN1CCC(C(=O)N2CCCC2)CC1` [3-55], the IC50 is 25.1 nM. Then `COc1cc(-n2ccnc(NCCc3ccccc3)c2=O)ccc1OCCN1CCC(F)(F)CC1` [3-56], with 39.8 nM. As to `COc1cc(-n2ccnc(NCCc3ccccc3)c2=O)ccc1OCCN1[C@H](C)CCC[C@@H]1C` [3-57], the IC50 is 31.6 nM. The result for `COc1cc(-n2ccnc(NCCc3ccccc3)c2=O)ccc1OCCN1CCC2(CC1)OCCO2` [3-58] reads 50.1 nM; that for `COc1cc(-n2ccnc(NCCc3ccccc3)c2=O)ccc1OCCN1CCOCC1` [3-59], 50.1 nM. The result for `COc1cc(-n2ccnc(NCCc3ccccc3)c2=O)ccc1OCCN1CCOC[C@@H]1C` [3-60] reads 63.1 nM; that for `COc1cc(-n2ccnc(NCCc3ccccc3)c2=O)ccc1OCCN1CCOC[C@H]1C` [3-61], 79.4 nM.

With `COc1cc(-n2ccnc(NCCc3ccccc3)c2=O)ccc1OCCN1C(C)COCC1C` (stereo not shown) [3-62], the IC50 is 39.8 nM. Then `COc1cc(-n2ccnc(NCCc3ccccc3)c2=O)ccc1OCCN1CC(C)OC(C)C1` (stereo not shown) [3-63], with 158 nM; and `COc1cc(-n2ccnc(NCCc3ccccc3)c2=O)ccc1OCCN1CCOC(CO)C1` (stereo not shown) [3-64], with 100 nM.

Regarding `COc1cc(-n2ccnc(NCCc3ccccc3)c2=O)ccc1OCCN1CCNC(=O)C1` [3-65], the IC50 is 158 nM. Then `COc1cc(-n2ccnc(NCCc3ccccc3)c2=O)ccc1OCCCNC(C)=O` [3-66], with 126 nM; and `COc1cc(-n2ccnc(NCCc3ccccc3)c2=O)ccc1OCCCNC(=O)C(C)C` [3-67], with 126 nM; and `COc1cc(-n2ccnc(NCCc3ccccc3)c2=O)ccc1OCCCN(C)C1CC1` [3-68], with 39.8 nM. The result for `COc1cc(-n2ccnc(NCCc3ccccc3)c2=O)ccc1OCCCNC(=O)C1CC1` [3-69] reads 126 nM; that for `COc1cc(-n2ccnc(NCCc3ccccc3)c2=O)ccc1OCCCN1CCC(O)C1` (stereo not shown) [3-70], 50.1 nM; that for `COc1cc(-n2ccnc(NCCc3ccccc3)c2=O)ccc1OCCCN1CCCC(CO)C1` (stereo not shown) [3-71], 39.8 nM.

In the case of `COc1cc(-n2ccnc(NCCc3ccccc3)c2=O)ccc1OCCCN1CCC(F)CC1` [3-72], the IC50 was 25.1 nM. The result for `COc1cc(-n2ccnc(NCCc3ccccc3)c2=O)ccc1OCCCN1CCC(C#N)CC1` [3-73] reads 39.8 nM; that for `COc1cc(-n2ccnc(NCCc3ccccc3)c2=O)ccc1OCCCN1CCC(F)(F)CC1` [3-74], 31.6 nM. Then `O=c1c(NCCc2ccccc2)nccn1-c1ccc(N2CCNCC2)c(Cl)c1` [3-77], with 100 nM; and `CN1CCN(c2ccc(-n3ccnc(NCCc4ccccc4)c3=O)cc2Cl)CC1` [3-78], with 50.1 nM. The result for `O=c1c(NCCc2ccccc2)nccn1-c1ccc(N2CCN(CCO)CC2)c(Cl)c1` [3-79] reads 63.1 nM; that for `COCCN1CCN(c2ccc(-n3ccnc(NCCc4ccccc4)c3=O)cc2Cl)CC1` [3-80], 79.4 nM. For `CN1CCN(CCOc2ccc(-n3ccnc(NCCc4ccccc4)c3=O)cc2Cl)CC1` [3-82], the IC50 is 50.1 nM. The result for `CN(C)CCN1CCc2cc(-n3ccnc(NCCOc4ccccc4)c3=O)ccc21` [3-84] reads 79.4 nM. In the case of `O=c1c(NCCOc2ccccc2)nccn1-c1ccc2c(cnn2CCN2CCCC2)c1` [3-85], the IC50 is 398 nM. The result for `O=c1c(NCCc2ccccc2)nccn1-c1ccc2nc(N3CCCCC3)ccc2c1` [3-87] reads 200 nM.

As for `CC(=O)N(C)C1CCN(c2ccc(-n3ccnc(NCCOc4ccccc4)c3=O)cn2)C1` (stereo not shown) [3-88], the IC50 was 794 nM. The result for `O=c1c(NCCOc2ccccc2)nccn1-c1ccc(OCCN2CCCC2)nc1` [3-91] reads 3980 nM; that for `O=c1c(NCCc2ccccc2)nccn1-c1ccc2c(c1)OCC(CN1CCOCC1)=C2` [3-92], 79.4 nM. In the case of `COc1cc(-n2ccnc(N3CCCC(c4ccccc4)C3)c2=O)ccc1OCCN1CCCC1` (stereo not shown) [4-01], the IC50 was 1260 nM.

As to `COc1cc(-n2ccnc(N3CCC(Oc4ccccc4)CC3)c2=O)ccc1OCCN1CCCC1` [4-02], the IC50 was 631 nM. Then `COc1cc(-n2ccnc(N3CCCC(c4ccc(F)cc4)C3)c2=O)ccc1OCCN1CCCC1` (stereo not shown) [4-03], with 2000 nM; and `COc1cc(-n2ccnc(N3CCC(c4ccc(C)cc4)C3)c2=O)ccc1OCCN1CCCC1` (stereo not shown) [4-04], with 316 nM; and `COc1cc(-n2ccnc(N3CCC(c4cccc(C(F)(F)F)c4)C3)c2=O)ccc1OCCN1CCCC1` (stereo not shown) [4-05], with 2000 nM. As for `COc1cc(-n2ccnc(N3CCC(c4ccccc4OC)C3)c2=O)ccc1OCCN1CCCC1` (stereo not shown) [4-06], the IC50 was 6310 nM. Take `COc1cccc(C2CCN(c3nccn(-c4ccc(OCCN5CCCC5)c(OC)c4)c3=O)C2)c1` (stereo not shown) [4-07]: the IC50 is 631 nM. Then `COc1cc(-n2ccnc(N3CCC(c4ccc(Cl)c(Cl)c4)C3)c2=O)ccc1OCCN1CCCC1` (stereo not shown) [4-08], with 794 nM.

As to `COc1cc(-n2ccnc(SCCc3ccccc3)c2=O)ccc1N1CCC(O)C1` (stereo not shown) [6-01], the IC50 is 39.8 nM. Then `CN[C@H]1CCN(c2ccc(-n3ccnc(SCCc4ccccc4)c3=O)cc2OC)C1` [6-02], with 10 nM; and `CN[C@@H]1CCN(c2ccc(-n3ccnc(SCCc4ccccc4)c3=O)cc2OC)C1` [6-03], with 12.6 nM; and `COc1cc(-n2ccnc(SCCc3ccccc3)c2=O)ccc1N1CC[C@H](N(C)C)C1` [6-05], with 12.6 nM.

Turning to `COc1cc(-n2ccnc(SCCc3ccccc3)c2=O)ccc1N1CC[C@@H](N(C)C)C1` [6-06], the IC50 is 15.8 nM. The result for `COc1cc(-n2ccnc(SCCc3ccccc3)c2=O)ccc1N1CCC(N2C(C)CCCC2C)C1` (stereo not shown) [6-09] reads 31.6 nM.
